Non-standard residues stand in square brackets, D forms with d. Residues, ends and D or L forms follow the SMILES beside them. ξ: configuration not given here. *: point of attachment. Phe(F5) = N[C@@H](Cc1c(F)c(F)c(F)c(F)c1F)C(=O)O; Desaminotyrosyl = O=C(CCc1ccc(O)cc1)*; NMeY = CN[C@@H](Cc1ccc(O)cc1)C(=O)O; Agmatine = N=C(N)NCCCCN*; Nle = CCCC[C@H](N)C(=O)O; Orn = NCCC[C@H](N)C(=O)O; Abu = CC[C@H](N)C(=O)O; Ava = NCCCCC(=O)O; GABA = NCCCC(=O)O; ξA = CC(N)C(=O)O

One test deals with T1, GHRH receptor (Homo sapiens, UniProt Q02643).
T1 sequence (Q02643 23-423): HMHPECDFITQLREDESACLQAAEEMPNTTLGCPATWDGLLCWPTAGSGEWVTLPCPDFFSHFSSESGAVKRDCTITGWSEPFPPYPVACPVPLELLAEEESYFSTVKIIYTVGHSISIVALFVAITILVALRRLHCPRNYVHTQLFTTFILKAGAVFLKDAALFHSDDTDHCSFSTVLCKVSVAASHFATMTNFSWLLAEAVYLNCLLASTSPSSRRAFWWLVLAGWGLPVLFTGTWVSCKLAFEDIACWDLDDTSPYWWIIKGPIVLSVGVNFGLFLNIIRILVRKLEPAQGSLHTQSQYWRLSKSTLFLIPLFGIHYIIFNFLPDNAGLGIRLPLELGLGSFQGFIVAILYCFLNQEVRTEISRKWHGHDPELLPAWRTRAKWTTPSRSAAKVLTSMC
Put plainly: GHRH receptor binding, competition with 125I-labeled JV-1-42, human pituitary membrane homogenates (Table 7). Details: Normal human pituitaries were purchased from the National Hormone and Peptide Program; tissue National Hormone and Peptide Program (A.F. Parlow, Harbor-UCLA Medical Center, Torrance, Calif.); host or cells: normal human pituitary, membrane fraction. The note with it: JI-38 = 1, Table 7. The text has this: Normal human pituitaries were purchased from the National Hormone and Peptide Program (A.F. Parlow, Los Angeles, County Harbor-UCLA Medical Center, Torrance, Calif.).

In another test the test system is GH release. Put plainly: In vivo endocrine activity, GH release after subcutaneous administration (Table 9). The following applies: rat, subcutaneous (s.c.) injection. Here is the method: Subcutaneous Administration. Adult male rats were used and anesthetized with pentobarbital (6 mg/100 g, b.w.), by i.p. injection. […] Blood samples were taken from the jugular vein 5, 15 and/or 30 minutes after the injection. The blood samples were centrifuged, plasma was removed and the GH level was measured byELISA. The results are summarized in terms of potency in Table 9.

In the case of `CCCC[C@H](NC(=O)[C@@H](NC(=O)[C@H](CC(=O)O)NC(=O)[C@H](CCC(N)=O)NC(=O)[C@H](CC(C)C)NC(=O)[C@H](CC(C)C)NC(=O)[C@H](CCCN)NC(=O)[C@H](CCCNC(=N)N)NC(=O)[C@H](C)NC(=O)[C@H](CO)NC(=O)[C@H](CC(C)C)NC(=O)[C@H](CCC(N)=O)NC(=O)[C@H](CC)NC(=O)[C@H](CC(C)C)NC(=O)[C@@H](NC(=O)[C@H](CCCN)NC(=O)[C@H](CCCNC(=N)N)NC(=O)[C@H](Cc1ccc(O)cc1)NC(=O)[C@H](CO)NC(=O)[C@H](CC(N)=O)NC(=O)[C@@H](NC(=O)[C@H](Cc1ccccc1)NC(=O)[C@@H](NC(=O)[C@H](C)NC(=O)[C@H](CC(=O)O)NC(=O)[C@@H](C)NC(=O)CCc1ccc(O)cc1)[C@@H](C)CC)[C@@H](C)O)C(C)C)[C@@H](C)CC)C(=O)N[C@@H](CC(=O)O)C(=O)N[C@@H](CCCNC(=N)N)C(=O)NC` [Peptide P-27400, [Dat^1, D-Ala^2, Orn^12, Abu^15, Orn^21, Nle^27, Asp^28]hGHRH(1-29)NH—CH3] (Desaminotyrosyl-[dA]DAIFTNSYR[Orn]VL[Abu]QLSAR[Orn]LLQDI[Nle]DR-NHMe), the “Relative affinity (Binding potency) vs JI-38” value (“Relative affinity” for short) at GHRH receptor turned out to be 1.30. The “GH releasing potency relative to JI-38 (=1)” value in the test on GH release (15 min after) was determined as 0.47; in the test with GH release (30 min after) it was 0.38.

On to “[N—Me-Tyr^1, Gln^8, Orn^12, Abu^15, Orn^21, Nle^27, Agm^29]hGHRH(1-29)NH2 [Peptide P-20373]”, for which the “GH releasing potency relative to JI-38 (=1)” value with GH release (15 min after) came out at 0.23; in the test on GH release (30 min after) it was 0.88.

`CCCC[C@H](NC(=O)[C@@H](NC(=O)[C@H](CC(=O)O)NC(=O)[C@H](CCC(N)=O)NC(=O)[C@H](CC(C)C)NC(=O)[C@H](CC(C)C)NC(=O)[C@H](CCCN)NC(=O)[C@H](CCCNC(=N)N)NC(=O)[C@H](C)NC(=O)[C@H](CO)NC(=O)[C@H](CC(C)C)NC(=O)[C@H](CCC(N)=O)NC(=O)[C@H](CC)NC(=O)[C@H](CC(C)C)NC(=O)[C@@H](NC(=O)[C@H](CCCN)NC(=O)[C@H](CCCNC(=N)N)NC(=O)[C@H](Cc1ccc(O)cc1)NC(=O)[C@H](CO)NC(=O)[C@H](CCC(N)=O)NC(=O)[C@@H](NC(=O)[C@H](Cc1ccccc1)NC(=O)[C@@H](NC(=O)[C@H](C)NC(=O)[C@H](CC(=O)O)NC(=O)C(C)NC(=O)[C@H](Cc1ccc(O)cc1)NC)[C@@H](C)CC)[C@@H](C)O)C(C)C)[C@@H](C)CC)C(=O)N[C@@H](CC(=O)O)C(=O)N[C@@H](CCCNC(=N)N)C(=O)NCCCCC(N)=O` (stereo partly shown) [Peptide P-22325, [N—Me-Tyr^1, Gln^8, Orn^12, Abu^15, Orn^21, Nle^27, Asp^28, Apa^30]hGHRH (1-30)NH2] (H-[NMeY][ξA]DAIFTQSYR[Orn]VL[Abu]QLSAR[Orn]LLQDI[Nle]DR[Ava]-NH2): the “Relative affinity” value at GHRH receptor was 1.14. For the same compound, the “GH releasing potency relative to JI-38 (=1)” value with GH release (5 min after) stood at 0.33; in the test on GH release (15 min after), 0.68; in the test on GH release (30 min after), 1.03.

Consider `CCCC[C@H](NC(=O)[C@@H](NC(=O)[C@H](CC(=O)O)NC(=O)[C@H](CCC(N)=O)NC(=O)[C@H](CC(C)C)NC(=O)[C@H](CC(C)C)NC(=O)[C@H](CCCN)NC(=O)[C@H](CCCNC(=N)N)NC(=O)[C@H](C)NC(=O)[C@H](CO)NC(=O)[C@H](CC(C)C)NC(=O)[C@H](CCC(N)=O)NC(=O)[C@H](CC)NC(=O)[C@H](CC(C)C)NC(=O)[C@@H](NC(=O)[C@H](CCCN)NC(=O)[C@H](CCCNC(=N)N)NC(=O)[C@H](Cc1ccc(O)cc1)NC(=O)[C@H](CO)NC(=O)[C@H](CC(N)=O)NC(=O)[C@@H](NC(=O)[C@H](Cc1c(F)c(F)c(F)c(F)c1F)NC(=O)[C@@H](NC(=O)[C@H](C)NC(=O)[C@H](CC(=O)O)NC(=O)[C@@H](C)NC(=O)[C@H](Cc1ccc(O)cc1)NC)[C@@H](C)CC)[C@@H](C)O)C(C)C)[C@@H](C)CC)C(=O)N[C@@H](CO)C(=O)N[C@@H](CCCNC(=N)N)C(=O)NCCCC(=O)NC` [Peptide P-27414, [N—Me-Tyr^1, D-Ala^2, Fpa5^6, Orn^12, Abu^15, Orn^21, Nle^27, Gab^30]hGHRH(1-30)NH—CH3] (H-[NMeY][dA]DAI[Phe(F5)]TNSYR[Orn]VL[Abu]QLSAR[Orn]LLQDI[Nle]SR[GABA]-NHMe), for which the “Relative affinity” value on GHRH receptor came out at 2.79. Also, the “GH releasing potency relative to JI-38 (=1)” value in the test with GH release (15 min after) was 1.30; in the test with GH release (30 min after), 1.23.

As to “[N—Me-D-Tyr^1, D-Ala^2, Gln^8, Orn^12, Abu^15, Orn^21, Nle^27, Asp^28]hGHRH(1-29)NH—CH3 [Peptide P-27425]”, the “GH releasing potency relative to JI-38 (=1)” value was determined as 0.49 in the test on GH release (15 min after) and 0.31 in the test with GH release (30 min after).

With `CCCC[C@H](NC(=O)[C@@H](NC(=O)[C@H](CC(=O)O)NC(=O)[C@H](CCC(N)=O)NC(=O)[C@H](CC(C)C)NC(=O)[C@H](CC(C)C)NC(=O)[C@H](CCCN)NC(=O)[C@H](CCCNC(=N)N)NC(=O)[C@H](C)NC(=O)[C@H](CO)NC(=O)[C@H](CC(C)C)NC(=O)[C@H](CCC(N)=O)NC(=O)[C@H](CC)NC(=O)[C@H](CC(C)C)NC(=O)[C@@H](NC(=O)[C@H](CCCN)NC(=O)[C@H](CCCNC(=N)N)NC(=O)[C@H](Cc1ccc(O)cc1)NC(=O)[C@H](CO)NC(=O)[C@H](CC(N)=O)NC(=O)[C@@H](NC(=O)[C@H](Cc1c(F)c(F)c(F)c(F)c1F)NC(=O)[C@@H](NC(=O)[C@H](C)NC(=O)[C@H](CC(=O)O)NC(=O)[C@@H](C)NC(=O)[C@H](Cc1ccc(O)cc1)NC)[C@@H](C)CC)[C@@H](C)O)C(C)C)[C@@H](C)CC)C(=O)N[C@@H](CC(=O)O)C(=O)NCCCCNC(=N)N` [Peptide P-20359, [N—Me-Tyr^1, D-Ala^2, Fpa5^6, Orn^12, Abu^15, Orn^21, Nle^27, Asp^28, Agm^29]hGHRH (1-29)NH2] (H-[NMeY][dA]DAI[Phe(F5)]TNSYR[Orn]VL[Abu]QLSAR[Orn]LLQDI[Nle]D-Agmatine), at GHRH receptor, the “Relative affinity” value is given as 1.43.

In the case of “[N—Me-Tyr^1, D-Ala^2, Ala^8, Orn^12, Abu^15, Orn^21, Nle^27, Asp^28]hGHRH (1-29)NH—CH3 [Peptide P-27412]”, the figures for the “GH releasing potency relative to JI-38 (=1)” value in the test with GH release (15 min after) and in the test with GH release (30 min after) were 1.10 and 1.29, respectively.

Take “[N—Me-Tyr^1, D-Ala^2, Thr^8, Orn^12, Abu^15, Orn^21, Nle^27, Asp^28, Agm^29] hGHRH (1-29)NH2 [Peptide P-20360]”: the “GH releasing potency relative to JI-38 (=1)” value in the test on GH release (15 min after) came out at 0.24; in the test on GH release (30 min after) it was 0.39.

As to “[N—Me-Tyr^1, D-Ala^2, Gln^8, Orn^12, Abu^15, Orn^21, Nle^27, Asp^28, Gln-Gab^30] hGHRH](1-30)NH2 [Peptide P-29701]”, the “GH releasing potency relative to JI-38 (=1)” value in the test on GH release (5 min after) is 0.92; in the test on GH release (15 min after), 1.30; in the test on GH release (30 min after), 1.55.

The values above are taken from US10555987B2, “GHRH agonists for the treatment of ischemic disorders” (UNIVERSITY OF MIAMI, priority 2012, dated 2020).
